Key:
mice [1] = test: Primary observation (Irwin) test in the mouse; type: in vivo; details: for overall effect in the Irwin test: all doses tested
Protocol: The method, which detects the first toxic dose, the active dose-range and the principal effects of a test substance on behavior and physiological function, follows that described by Irwin 1968 Psychopharmaco, 13:222-257,
3 treated groups were compared with the same control at any one time. All animals within a treatment group were observed simultaneously.
Behavioral modifications, physiological and neurotoxicity symptoms, pupil diameter and rectal temperature were recorded according to a standardized observation grid derived from that of Irwin, supra. The grid contains the following items: lethality*, convulsions*, tremor*, Straub*, sedation, excitation, abnormal gait* (rolling, tip-toe), jumps*, motor incoordination*, writhes*, piloerection*, stereotypies* (sniffing, chewing, head movements), head twitches*, scratching*, respiration*, aggressiveness*, fear, reactivity to touch, muscle tone, loss of righting reflex, ptosis, exopthalmos, loss of grasping, akinesia, catalepsy, loss of traction, loss of corneal reflex, analgesia, defecation, salivation, lacrimation, pupil diameter (Unit=1/45 mm) and rectal temperature.
Observations were performed 15, 30, 60, 120 and 180 minutes after administration of the test substance and also 24 hours later. The symptoms marked (*) were observed continuously from 0 to 15 minutes after administration. 5 mice were studied per group.
3-Butylphthalide (98.5% purity) was solubilized in 3% DMSO, 3% Tween 80 in saline (0.9% w/v NaCl) and injected into mice intraperitoneally.

mice [2] = test: Porsolt's swim test (behavioural despair test); type: in vivo, mouse; details: for Duration of immobility [seconds] ± Standard Error of Mean: last 4 of 6 minutes
Protocol: The “Behavioural Despair Test” or “Porsolt's Forced Swim Test” is a validated animal model for depression (see T, Nagatsu 2004 Neuro Toxicology, 25:11-20, and Porsolt et al. 1977, Arch. Int. Pharmacodyn., 229: 327-336). It responds to enhancement of the trans-mission of several neurotransmitters including serotonine, dopamine and noradrenaline.
The test, which detects antidepressant activity, was carried out as described by Porsolt et al supra. Mice which are forced to swim in a situation from which they cannot escape rapidly become immobile. Antidepressants decrease the duration of immobility.
Mice were individually placed in a cylinder (Height=24 cm, Diameter=13 cm) containing 10 cm water (22° C.) from which they could not escape. The mice were placed in the water for 6 minutes and the duration of immobility during the last 4 minutes was measured.
10 mice were studied per each of the four groups. The test was performed blind, i.e. the person carrying out the experiment was different from the person injecting the mice and didn't thus know to which of the four groups each mouse belonged.
3-n-butylphthalide (98.5% purity) was evaluated at 3 doses each: at 10, 30 and 80 mg/kg body weight, administered intraperitoneally 30 minutes before the test, and compared with a control group. The thus administered 3-n-butylphthalide was dissolved in a saline solution containing 3 weight-% DMSO and 3 weight-% Tween® 80 (so called “vehicle”), To the control group the vehicle consisting of the saline solution containing 3 weight-% DMSO and 3 weight-% Tween® 80 was administered intraperitoneally.

mice [3] = test: Elevated plus maze test; type: in vivo, mouse; details: for OPEN ARM Number of entries, Mean ± sem / OPEN ARM Time spent (s), Mean ± sem: 5 h and 1 h before test; for OPEN ARM Number of entries, % change / OPEN ARM Time spent, % change: versus vehicle
Text: The method, which detects anxiolytic activity, follows that described by Handley et al, 1984 (Naunyn-Schm Arch Pharm 387: 1-5. Rodents avoid open spaces (the open arms of an elevated plus-maze). Anxiolytics increase exploratory activity in the […].
The maze consists of 4 arms of equal length and width (14×5 cm) arranged in the form of a plus sign (+). Two opposite arms are enclosed by 12 cm high walls (closed arms). The 2 other arms have no walls (open arms). The maze is raised 56 cm above the floor. A mouse is placed in the centre of the plus-maze and left to explore for 5 minutes. The number of entries into the open and closed arms and the time spent in the open arms is recorded. 10 mice were studied per group. The test was performed blind.
3-n-Butylphthalide was tested at doses of 10, 30, and 80 mg/kg body weight.

[4] = target: T1, human dopamine transporter (hDAT) (Homo sapiens, UniProt Q01959); test: Dopamine uptake inhibition in CHO-Ki/hDAT cells; type: cell-based; details: 50 nM [3H]Dopamine, 10 minutes
T1 construct: expressed in transfected cells; host or cells: CHO-Ki (CHO-K1)
Protocol: CHO-Ki/hDAT cells expressing the human dopamine transporter (hDAT) were plated before the assay. Cells (2×10^5/ml) were incubated with the compound of the formula I (3-n-butylphthalide) and/or vehicle in modified Tris-HEPES buffer pH 7.1 at 25° C. for 20 minutes before addition of 50 nM [^3H]Dopamine for 10 minutes. Specific signal was determined in the presence of 10 μM nomifensine. Cells were then solubilized with 1% […] lysis buffer. Reduction of [^3H]Dopamine uptake by 50 percent or more 50%) relative to vehicle controls indicates significant inhibitory activity. Compounds were screened at 10, 1, 0.1, 0.01 and 0.001 μM.

[5] = target: T2, Human recombinant norepinephrine transporter (Homo sapiens, UniProt P23975); test: Norepinephrine uptake inhibition in MDCK cells; type: cell-based; details: 25 nM [3H]Norepinephrine, 10 minutes
T2 construct: expressed in transfected cells; host or cells: dog kidney MDCK cells
Protocol: Human recombinant norepinephrine transporter stably expressed dog kidney MDCK cells are plated one day before the assay. […] Cells in the well were then rinsed twice, solubilized with 1% SDS lysis buffer and the lysate was counted to determine [^3H]Norepinephrine uptake. Specific signal was determined in the presence of 10 μM desipramine. Reduction of [^3H]Norepinephrine uptake by 50 percent or more (≧50%) relative to vehicle controls indicates significant inhibitory activity. Compounds were screened at 10, 1, 0.1, 0.01 and 0.001 μM.

[6] = 100 mg/kg, 15 to 60 minutes after administration

T1 sequence (Q01959 whole entry): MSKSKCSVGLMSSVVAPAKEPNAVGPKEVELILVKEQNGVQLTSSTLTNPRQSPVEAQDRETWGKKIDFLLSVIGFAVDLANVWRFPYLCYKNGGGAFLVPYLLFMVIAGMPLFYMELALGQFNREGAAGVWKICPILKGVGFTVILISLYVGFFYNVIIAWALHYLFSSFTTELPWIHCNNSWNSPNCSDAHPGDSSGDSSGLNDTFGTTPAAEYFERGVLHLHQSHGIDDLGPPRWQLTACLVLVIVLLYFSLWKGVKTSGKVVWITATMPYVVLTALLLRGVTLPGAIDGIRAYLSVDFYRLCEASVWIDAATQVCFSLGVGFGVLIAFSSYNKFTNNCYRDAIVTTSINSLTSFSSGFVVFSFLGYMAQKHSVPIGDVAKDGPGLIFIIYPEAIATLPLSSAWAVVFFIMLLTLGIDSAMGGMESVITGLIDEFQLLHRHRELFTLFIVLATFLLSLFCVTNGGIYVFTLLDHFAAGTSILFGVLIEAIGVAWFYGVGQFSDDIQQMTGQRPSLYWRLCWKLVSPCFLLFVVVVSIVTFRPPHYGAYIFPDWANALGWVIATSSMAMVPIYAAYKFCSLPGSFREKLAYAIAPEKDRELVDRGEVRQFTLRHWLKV
T2 sequence (P23975 whole entry): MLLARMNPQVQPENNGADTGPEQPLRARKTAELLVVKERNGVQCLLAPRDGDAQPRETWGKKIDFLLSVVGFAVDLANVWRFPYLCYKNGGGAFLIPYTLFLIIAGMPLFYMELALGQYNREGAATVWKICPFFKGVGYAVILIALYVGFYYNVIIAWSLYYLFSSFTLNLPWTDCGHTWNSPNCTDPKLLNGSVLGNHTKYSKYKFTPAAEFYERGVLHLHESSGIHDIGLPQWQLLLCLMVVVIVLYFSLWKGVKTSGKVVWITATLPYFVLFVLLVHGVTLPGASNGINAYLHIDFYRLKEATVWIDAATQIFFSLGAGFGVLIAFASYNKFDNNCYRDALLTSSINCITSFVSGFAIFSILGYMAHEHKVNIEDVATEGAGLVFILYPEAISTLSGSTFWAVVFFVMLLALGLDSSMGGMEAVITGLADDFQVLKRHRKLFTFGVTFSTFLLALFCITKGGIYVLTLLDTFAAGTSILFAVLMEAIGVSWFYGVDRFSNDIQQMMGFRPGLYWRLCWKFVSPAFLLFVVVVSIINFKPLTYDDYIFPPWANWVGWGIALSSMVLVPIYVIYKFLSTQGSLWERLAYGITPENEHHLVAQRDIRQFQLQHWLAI

With CCCC[C@@H]1OC(=O)c2ccccc21 (stereo in doubt) [3-n-butylphthalide, 3-n-Butylphthalide] the muscle tone (mice [1]; 100 mg/kg, 15 to 60 minutes) was “reduced muscle tone”, the sedation (mice [1]; [6]) was “slight sedative effects” and the muscle tone (mice [1]; 200 mg/kg) was “reduced muscle tone”. The fear (mice [1]; 200 mg/kg, after 60 minutes) was “reduced fear”, the sedation (mice [1]; 200 mg/kg, up to 120 minutes) was “moderate sedative effects” and the sedation (mice [1]; 300 mg/kg, 15 minutes and 30 minutes) was “marked sedation”. The sedation (mice [1]; 300 mg/kg, 60 minutes and 120 minutes) was “moderate sedation”, the fear (mice [1]; 300 mg/kg, 120 minutes) was “reduced” and the muscle tone (mice [1]; 300 mg/kg, 120 minutes) was “reduced”. For the same compound, the sedation (mice [1]; 300 mg/kg, 180 minutes) was “slight sedation”, the “overall effect in the Irwin test” value (mice [1]) was “dose dependent sedative and muscle relaxant effect” and the “overall effect in the Irwin test” value (mice [1]; listed as 3-butylphthalide) was “dose dependent sedative, fear reducing and muscle relaxant effect”. The “Duration of immobility [seconds] ± Standard Error of Mean” value (mice [2]; 10 mg/kg body weight) was 132.4 ± 9.3 s, the “Duration of immobility [seconds] ± Standard Error of Mean” value (mice [2]; 30 mg/kg body weight) was 128.0 ± 15.3 s and the “Duration of immobility [seconds] ± Standard Error of Mean” value (mice [2]; 80 mg/kg body weight) was 129.0 ± 15.4 s. The “reduction of the immobility time” value (mice [2]; between 10 and 80 mg/kg, tendency) was “approximately 18%”, the “OPEN ARM Number of entries, Mean ± sem” value (mice [3]; 10 mg/kg p.o. −24 h) was 3.5 ± 0.7 and the “OPEN ARM Time spent (s), Mean ± sem” value (mice [3]; 10 mg/kg p.o. −24 h) was 24.3 ± 4.6 s. For the same compound, the “OPEN ARM Number of entries, % change” value (mice [3]; 10 mg/kg p.o.) was “+46%”, the “OPEN ARM Time spent, % change” value (mice [3]; 10 mg/kg p.o.) was “+34%” and the “OPEN ARM Number of entries, Mean ± sem” value (mice [3]; 30 mg/kg p.o. −24 h) was 3.1 ± 0.5. For the same compound, the “OPEN ARM Time spent (s), Mean ± sem” value (mice [3]; 30 mg/kg p.o. −24 h) was 23.0 ± 3.8 s, the “OPEN ARM Number of entries, % change” value (mice [3]; 30 mg/kg p.o.) was “+29%” and the “OPEN ARM Time spent, % change” value (mice [3]; 30 mg/kg p.o.) was “+26%”. For the same compound, the “OPEN ARM Number of entries, Mean ± sem” value (mice [3]; 80 mg/kg p.o. −24 h) was 3.0 ± 0.8, the “OPEN ARM Time spent (s), Mean ± sem” value (mice [3]; 80 mg/kg p.o. −24 h) was 26.4 ± 5.3 s and the “OPEN ARM Number of entries, % change” value (mice [3]; 80 mg/kg p.o.) was “+25%”. The “OPEN ARM Time spent, % change” value (mice [3]; 80 mg/kg p.o.) was “+45%”, the anxiolytic activity (mice [3]; 10, 30 and 80 mg/kg) was “moderate anxiolytic activity” and the “entries into the closed arm” value (mice [3]; 10, 30 and 80 mg/kg) was “no effect”. For the same compound, the “number of entries and time spent in the open arm (overall)” value (mice [3]; 10, 30 and 80 mg/kg) was “trend to moderately increase”, the IC50 [4] was 22 µM and the IC50 [5] was 23.7 µM.

With CCC/C=C1\OC(=O)C2=C1CCC=C2 [Ligustilide] the sedation (mice [1]; 30 mg/kg, 30 minutes) was “slight sedation”, the muscle tone (mice [1]; 100 mg/kg, 15 to 60 minutes) was “decreased muscle tone” and the sedation (mice [1]; [6]) was “slight sedation”. The muscle tone (mice [1]; 200 mg/kg) was “decreased muscle tone”, the sedation (mice [1]; 200 mg/kg, 180 minutes) was “slight” and the sedation (mice [1]; 200 mg/kg, up to 120 minutes) was “slight-to-moderate”. The sedation (mice [1]; 300 mg/kg, 15 to 60 minutes) was “moderate”, the muscle tone (mice [1]; 300 mg/kg, 15 to 180 minutes) was “decreased muscle tone” and the sedation (mice [1]; 300 mg/kg, 120 to 180 minutes) was “slight”. For the same compound, the “overall effect in the Irwin test” value (mice [1]) was “dose dependent sedative and muscle relaxant effect”, the “Duration of immobility [seconds] ± Standard Error of Mean” value (mice [2]; 10 mg/kg body weight) was 128.9 ± 15.1 s and the “reduction of the immobility time” value (mice [2]; 10 mg/kg, tendency) was “approx. 18%”. For the same compound, the “Duration of immobility [seconds] ± Standard Error of Mean” value (mice [2]; 30 mg/kg body weight) was 164.2 ± 15.5 s and the “reduction of the immobility time” value (mice [2]; higher doses (30 and 80 mg/kg)) was “not at the higher doses”.
